Test results: patent US9212182B2, “Bicyclic sulfonamide compounds as sodium channel inhibitors” (AMGEN INC., priority 2013, dated 2015)

The compounds below were run against Nav 1.7 (Homo sapiens (Human), UniProt Q15858) (assay: in-vitro Nav 1.7 PX (IC50)). Conditions: not given.
Type: cell-based

Sequence of Nav 1.7 (Q15858 whole entry): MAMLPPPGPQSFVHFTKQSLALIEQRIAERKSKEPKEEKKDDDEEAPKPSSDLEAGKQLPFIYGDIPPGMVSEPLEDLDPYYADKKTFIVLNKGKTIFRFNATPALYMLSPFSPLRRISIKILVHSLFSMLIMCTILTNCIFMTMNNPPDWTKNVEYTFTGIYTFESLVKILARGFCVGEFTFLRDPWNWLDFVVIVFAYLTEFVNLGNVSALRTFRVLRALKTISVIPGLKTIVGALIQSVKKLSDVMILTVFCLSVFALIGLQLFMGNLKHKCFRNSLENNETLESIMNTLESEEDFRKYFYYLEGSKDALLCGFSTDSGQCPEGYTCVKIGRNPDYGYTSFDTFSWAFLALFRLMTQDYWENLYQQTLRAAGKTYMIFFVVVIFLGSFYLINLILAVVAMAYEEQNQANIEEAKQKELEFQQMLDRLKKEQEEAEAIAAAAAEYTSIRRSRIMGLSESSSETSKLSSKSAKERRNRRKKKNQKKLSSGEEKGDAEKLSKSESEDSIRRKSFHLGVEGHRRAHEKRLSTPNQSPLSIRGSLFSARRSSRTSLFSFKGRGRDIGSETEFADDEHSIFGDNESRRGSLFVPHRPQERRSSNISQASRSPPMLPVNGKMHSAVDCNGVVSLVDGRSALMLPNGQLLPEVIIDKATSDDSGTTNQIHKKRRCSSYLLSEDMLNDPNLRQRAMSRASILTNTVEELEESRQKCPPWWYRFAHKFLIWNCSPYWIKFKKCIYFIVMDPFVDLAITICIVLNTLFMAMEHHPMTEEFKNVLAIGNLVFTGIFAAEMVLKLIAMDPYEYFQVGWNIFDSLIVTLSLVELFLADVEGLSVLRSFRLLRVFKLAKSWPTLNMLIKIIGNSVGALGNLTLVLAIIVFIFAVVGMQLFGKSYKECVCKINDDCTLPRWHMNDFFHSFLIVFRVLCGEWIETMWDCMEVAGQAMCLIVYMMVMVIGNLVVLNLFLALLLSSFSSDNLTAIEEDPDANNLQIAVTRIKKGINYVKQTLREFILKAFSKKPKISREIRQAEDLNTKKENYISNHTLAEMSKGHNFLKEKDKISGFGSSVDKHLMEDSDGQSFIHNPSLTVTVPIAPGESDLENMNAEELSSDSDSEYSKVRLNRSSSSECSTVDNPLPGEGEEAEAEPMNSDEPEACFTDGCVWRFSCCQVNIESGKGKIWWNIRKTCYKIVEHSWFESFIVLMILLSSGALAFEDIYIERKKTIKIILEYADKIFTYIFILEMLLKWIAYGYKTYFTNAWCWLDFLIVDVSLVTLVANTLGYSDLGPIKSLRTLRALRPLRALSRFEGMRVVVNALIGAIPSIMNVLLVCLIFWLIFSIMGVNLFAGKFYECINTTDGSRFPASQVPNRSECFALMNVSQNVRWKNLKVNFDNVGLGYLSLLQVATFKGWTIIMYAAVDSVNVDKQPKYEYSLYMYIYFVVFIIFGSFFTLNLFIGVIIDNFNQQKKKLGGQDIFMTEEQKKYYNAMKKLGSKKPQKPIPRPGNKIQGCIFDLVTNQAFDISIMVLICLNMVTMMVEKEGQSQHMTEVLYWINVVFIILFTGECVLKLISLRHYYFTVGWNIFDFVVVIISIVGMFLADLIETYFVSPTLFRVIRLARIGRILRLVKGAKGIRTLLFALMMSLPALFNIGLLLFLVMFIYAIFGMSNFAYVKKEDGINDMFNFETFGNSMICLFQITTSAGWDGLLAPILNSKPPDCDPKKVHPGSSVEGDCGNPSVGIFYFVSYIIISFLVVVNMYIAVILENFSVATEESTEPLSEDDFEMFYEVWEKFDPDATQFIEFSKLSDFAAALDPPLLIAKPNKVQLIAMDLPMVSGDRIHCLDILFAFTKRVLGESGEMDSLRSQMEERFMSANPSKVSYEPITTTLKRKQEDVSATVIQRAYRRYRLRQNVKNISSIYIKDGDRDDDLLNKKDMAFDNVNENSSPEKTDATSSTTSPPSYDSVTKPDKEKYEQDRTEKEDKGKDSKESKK

| Compound | IC50 |
| --- | --- |
| COc1nc(NC[C@H]2CCC(C)(C)O2)c(Cl)cc1-n1c(=O)ccc2cc(S(=O)(=O)Nc3ccon3)ccc21 [Example 1232, 1-(5-chloro-6-((((2R)-5,5-dimethyltetrahydro-2-furanyl)methyl)amino)-2-methoxy-3-pyridinyl)-N-3-isoxazolyl-2-oxo-1,2-dihydro-6-quinolinesulfonamide, 1-(5-chloro-6-((((2S)-5,5-dimethyltetrahydro-2-furanyl)methyl)amino)-2-methoxy-3-pyridinyl)-N-3-isoxazolyl-2-oxo-1,2-dihydro-6-quinolinesulfonamide] | 2940 nM |
| 1-(2′-chloro-5-methoxy-2,3′-dimethyl-4-biphenylyl)-2-oxo-N-2-pyrimidinyl-1,2-dihydro-6-quinolinesulfonamide [Example 961] | 56 nM |

Results, then the compound that gave them:

| IC50 | Compound |
| --- | --- |
| 269 nM | COc1cc(Br)c(C)cc1-n1c(=O)ccc2cc(S(=O)(=O)Nc3ccon3)ccc21 (atropisomer, axis not shown; (P)) [Example 415, (P)-1-(4-bromo-2-methoxy-5-methylphenyl)-N-3-isoxazolyl-2-oxo-1,2-dihydro-6-quinolinesulfonamide] |
| 2070 nM | COc1ccc(-c2cncc(C#N)c2)cc1-n1c(=O)ccc2cc(S(=O)(=O)Nc3ccon3)ccc21 [Example 491, 1-(5-(5-cyano-3-pyridinyl)-2-methoxyphenyl)-N-3-isoxazolyl-2-oxo-1,2-dihydro-6-quinolinesulfonamide] |
| 805 nM | COc1cnc(-c2cc(Cl)ccc2F)cc1-n1c(=O)ccc2cc(S(=O)(=O)Nc3ccon3)ccc21 [Example 1169, 1-(2-(5-chloro-2-fluorophenyl)-5-methoxy-4-pyridinyl)-N-3-isoxazolyl-2-oxo-1,2-dihydro-6-quinolinesulfonamide] |
| 5050 nM | COc1cc(-c2ccc(Cl)c(C)c2)ccc1-n1c(=O)ccc2cc(S(=O)(=O)Nc3ccon3)ccc21 (atropisomer, axis not shown; (M)) [Example 431, (M)-1-(4′-chloro-3-methoxy-3′-methyl-4-biphenylyl)-N-3-isoxazolyl-2-oxo-1,2-dihydro-6-quinolinesulfonamide] |
| 298 nM | COc1ccc(-c2cncc(C(F)(F)F)c2)cc1-n1c(=O)ccc2cc(S(=O)(=O)Nc3ccon3)ccc21 [Example 492, N-3-isoxazolyl-1-(2-methoxy-5-(5-(trifluoromethyl)-3-pyridinyl)phenyl)-2-oxo-1,2-dihydro-6-quinolinesulfonamide] |
| 7590 nM | COc1cc(-c2cccc(F)c2)c(C)cc1-n1c(=O)ccc2cc(S(=O)(=O)Nc3ccon3)ccc21 (atropisomer, axis not shown; (M)) [Example 428, (M)-1-(3′-fluoro-5-methoxy-2-methyl-4-biphenylyl)-N-3-isoxazolyl-2-oxo-1,2-dihydro-6-quinolinesulfonamide] |

Same assay, conditions: in-vitro Nav 1.7 PX data

| Compound | IC50 |
| --- | --- |
| COc1cc(-c2cc(OC)c(-n3c(=O)ccc4cc(S(=O)(=O)Nc5ncccn5)ccc43)cc2C)ccc1F [Example 960, 1-(4′-fluoro-3′,5-dimethoxy-2-methyl-4-biphenylyl)-2-oxo-N-2-pyrimidinyl-1,2-dihydro-6-quinolinesulfonamide] | 36 nM |
| COc1cc(-c2cccc(C(F)(F)F)c2)ccc1-n1c(=O)ccc2cc(S(=O)(=O)Nc3cc(C)ncn3)ccc21 [Example 946, 1-(3-methoxy-3′-(trifluoromethyl)-4-biphenylyl)-N-(6-methyl-4-pyrimidinyl)-2-oxo-1,2-dihydro-6-quinolinesulfonamide] | 24 nM |
| COc1cc(-c2cc(Cl)cnc2OC)c(F)cc1-n1c(=O)ccc2cc(S(=O)(=O)Nc3cccnn3)ccc21 [Example 775, 1-(4-(5-chloro-2-methoxy-3-pyridinyl)-5-fluoro-2-methoxyphenyl)-2-oxo-N-3-pyridazinyl-1,2-dihydro-6-quinolinesulfonamide] | 47 nM |
| COc1cc(CC2CCCCC2)c(F)cc1-n1c(=O)ccc2cc(S(=O)(=O)Nc3ncco3)ccc21 [Example 1110, 1-(4-(cyclohexylmethyl)-5-fluoro-2-methoxyphenyl)-N-1,3-oxazol-2-yl-2-oxo-1,2-dihydro-6-quinolinesulfonamide] | 52 nM |
| COc1cc(Cl)cc(-c2cc(OC)cc(-c3cc(OC)c(-n4c(=O)ccc5cc(S(=O)(=O)Nc6ccon6)ccc54)cc3F)c2)c1 [Example 723, 1-(3″-chloro-2-fluoro-5,5′,5″-trimethoxy-1,1′:3′,1″-terphenyl-4-yl)-N-3-isoxazolyl-2-oxo-1,2-dihydro-6-quinolinesulfonamide] | 7 nM |
| COc1cc(-c2ccc(Cl)c(C)c2)c(F)cc1-n1c(=O)ccc2cc(S(=O)(=O)Nc3cccnn3)ccc21 (atropisomer, axis not shown; (P)) [Example 695, (P)-1-(4′-chloro-2-fluoro-5-methoxy-3′-methyl-4-biphenylyl)-2-oxo-N-3-pyridazinyl-1,2-dihydro-6-quinolinesulfonamide] | 12 nM |
| COc1cc(-c2cc(OC)c(-n3c(=O)ccc4cc(S(=O)(=O)Nc5ncccn5)ccc43)cc2F)ccc1F [Example 1006, 1-(2,4′-difluoro-3′,5-dimethoxy-4-biphenylyl)-2-oxo-N-2-pyrimidinyl-1,2-dihydro-6-quinolinesulfonamide] | 76 nM |
| COc1cc(-c2ccc(F)c(F)c2)c(F)cc1-n1c(=O)ccc2cc(S(=O)(=O)Nc3ncccn3)ccc21 [Example 935, 2-oxo-N-2-pyrimidinyl-1-(2,3′,4′-trifluoro-5-methoxy-4-biphenylyl)-1,2-dihydro-6-quinolinesulfonamide] | 22 nM |
| COc1cc(-c2cc(F)cc(C(F)(F)F)c2)ccc1-n1c(=O)ccc2cc(S(=O)(=O)Nc3ncccn3)ccc21 [Example 1097] | 50 nM |
| COCCCOc1nc(OC)c(-n2c(=O)ccc3cc(S(=O)(=O)Nc4ccon4)ccc32)cc1Cl [Example 831, 1-(5-chloro-2-methoxy-6-(3-methoxypropoxy)-3-pyridinyl)-N-3-isoxazolyl-2-oxo-1,2-dihydro-6-quinolinesulfonamide] | 3810 nM |
| COc1cc(-c2cc(F)cc(C(F)(F)F)c2)ccc1-n1c(=O)ccc2cc(S(=O)(=O)Nc3cnccn3)ccc21 [Example 1094, 1-(3′-fluoro-3-methoxy-5′-(trifluoromethyl)-4-biphenylyl)-2-oxo-N-2-pyrazinyl-1,2-dihydro-6-quinolinesulfonamide] | 69 nM |

The next lines start with the values.

| IC50 | Compound |
| --- | --- |
| 11600 nM | COc1ccc(-c2ccc(Cl)c(C)c2)cc1-n1c(=O)ccc2cc(S(=O)(=O)Nc3ccon3)ccc21 [Example 872, 1-(4′-chloro-4-methoxy-3′-methyl-3-biphenylyl)-N-3-isoxazolyl-2-oxo-1,2-dihydro-6-quinolinesulfonamide] |
| 274 nM | COc1cc(-c2ccc(F)cc2)c(F)cc1-n1c(=O)ccc2cc(S(=O)(=O)Nc3ccnc(C)n3)ccc21 [Example 773, 1-(2,4′-difluoro-5-methoxy-4-biphenylyl)-N-(2-methyl-4-pyrimidinyl)-2-oxo-1,2-dihydro-6-quinolinesulfonamide] |
| 605 nM | COc1cnc(-c2cc(F)cc(Cl)c2)cc1-n1c(=O)ccc2cc(S(=O)(=O)Nc3ccon3)ccc21 [Example 618, 1-(2-(3-chloro-5-fluorophenyl)-5-methoxy-4-pyridinyl)-N-3-isoxazolyl-2-oxo-1,2-dihydro-6-quinolinesulfonamide] |
| 66 nM | COc1cc(-c2cccc(OC)c2F)ccc1-n1c(=O)ccc2cc(S(=O)(=O)Nc3ccon3)ccc21 [Example 785, 1-(2′-fluoro-3,3′-dimethoxy-4-biphenylyl)-N-3-isoxazolyl-2-oxo-1,2-dihydro-6-quinolinesulfonamide] |
| 1600 nM | COc1cc(C[C@@H]2CCOC2)c(F)cc1-n1c(=O)ccc2cc(S(=O)(=O)Nc3ccon3)ccc21 [Example 1123, 1-(5-fluoro-2-methoxy-4-((3R)-tetrahydro-3-furanylmethyl)phenyl)-N-3-isoxazolyl-2-oxo-1,2-dihydro-6-quinolinesulfonamide, 1-(5-fluoro-2-methoxy-4-((3S)-tetrahydro-3-furanylmethyl)phenyl)-N-3-isoxazolyl-2-oxo-1,2-dihydro-6-quinolinesulfonamide] |
| 98 nM | COc1cc(-c2cccc(C#N)c2)ccc1-n1c(=O)ccc2cc(S(=O)(=O)Nc3ccon3)ccc21 [Example 1019, 1-(3′-cyano-3-methoxy-4-biphenylyl)-N-3-isoxazolyl-2-oxo-1,2-dihydro-6-quinolinesulfonamide] |
| 16 nM | COc1cc(-c2ccc(C)c(C)c2)c(F)cc1-n1c(=O)ccc2cc(S(=O)(=O)Nc3ccon3)ccc21 [Example 704, 1-(2-fluoro-5-methoxy-3′,4′-dimethyl-4-biphenylyl)-N-3-isoxazolyl-2-oxo-1,2-dihydro-6-quinolinesulfonamide] |

Same assay, conditions: in-vitro Nav 1.7 PX data (PatchXpress)

| IC50 | Compound |
| --- | --- |
| 25400 nM | CC(C#N)Oc1cc(Br)c(F)cc1-n1c(=O)ccc2cc(S(=O)(=O)Nc3ccon3)ccc21 (stereo not drawn) [Example 680, 1-(4-bromo-2-(1-cyanoethoxy)-5-fluorophenyl)-N-(isoxazol-3-yl)-2-oxo-1,2-dihydroquinoline-6-sulfonamide] |
| 15 nM | O=c1ccc2cc(S(=O)(=O)Nc3ncns3)ccc2n1-c1ccc(-c2cc(F)cc(F)c2)cc1C1CC1 [Example 1048, 1-(3-cyclopropyl-3′,5′-difluoro-4-biphenylyl)-2-oxo-N-1,2,4-thiadiazol-5-yl-1,2-dihydro-6-quinolinesulfonamide] |

Same assay, conditions: in-vitro Nav 1.7 PX data, Table 4

| IC50 | Compound |
| --- | --- |
| 51 nM | COc1cc(-c2cnc(OC)c(Cl)c2)c(F)cc1-n1c(=O)ccc2cc(S(=O)(=O)Nc3cc(C)ncn3)ccc21 (atropisomer, axis not shown; (P)) [Example 1159, (P)-1-(4-(5-chloro-6-methoxy-3-pyridinyl)-5-fluoro-2-methoxyphenyl)-N-(6-methyl-4-pyrimidinyl)-2-oxo-1,2-dihydro-6-quinolinesulfonamide] |

Same assay, conditions: in-vitro PatchXpress (PX)

| IC50 | Compound |
| --- | --- |
| 60 nM | COc1cc(-c2cncc(Cl)c2)c(F)cc1-n1c(=O)ccc2cc(S(=O)(=O)Nc3ccon3)ccc21 (atropisomer, axis not shown; (M)) [Example 409, (M)-1-(4-(5-chloro-3-pyridinyl)-5-fluoro-2-methoxyphenyl)-N-3-isoxazolyl-2-oxo-1,2-dihydro-6-quinolinesulfonamide] |
